Results reported in patent US20200239530A1, “COMPOUNDS AND METHODS OF MODULATING PROTEIN DEGRADATION” (Vividion Therapeutics, Inc., priority 2017, published 2020).
Each block holds one compound with its values, some of them ahead of it.

Assays:
Assay in all cases: Cysteine liganding, probe competition
Type in all cases: binding
[1] = target: T1, ZNF638 Zinc finger protein 638 (Homo sapiens, UniProt Q14966)
T1 construct: Cells were resuspended in cold PBS on ice and sonicated with a probe sonicator to achieve lysis; endogenous in cells
In short: (§1)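 Probe competition in native proteome: 5 mg/ml lysate, compound 1 hr 25° C, then desthiobiotin iodoacetamide (10 mM stock) 1 hr 25° C; acetone ppt, urea/DTT reduction, iodoacetamide alkylation, trypsin, streptavidin pull-down.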

[2] = target: T2, UBE4A Ubiquitin conjugation factor E4 A (Homo sapiens, UniProt Q14139); details: UBE4A Res# 79, uniprot Q14139
T2 construct: Cells were resuspended in cold PBS on ice and sonicated with a probe sonicator to achieve lysis; endogenous in cells
In short: as §1

[3] = target: T3, GFM1 Elongation factor G, mitochondrial (Homo sapiens, UniProt Q96RP9); details: GFM1 Res# 146, uniprot Q96RP9
T3 construct: Cells were resuspended in cold PBS on ice and sonicated with a probe sonicator to achieve lysis; endogenous in cells
In short: as §1

[4] = target: T4, TNF receptor-associated factor 6 (TRAF6) (Homo sapiens, UniProt Q9Y4K3); details: read-out: percent_inhibition
T4 construct: Cells were resuspended in cold PBS on ice and sonicated with a probe sonicator to achieve lysis; endogenous in cells
In short: as §1

[5] = target: T5, ALDH1L2 Mitochondrial 10-formyltetrahydrofolate dehydrogen (Homo sapiens, UniProt Q3SY69)
T5 construct: 200 μL of lysate containing 5 mg/ml proteome was treated with 2 μL of 100× compound stock; endogenous in cells
T5 sequence (Q3SY69 1-923): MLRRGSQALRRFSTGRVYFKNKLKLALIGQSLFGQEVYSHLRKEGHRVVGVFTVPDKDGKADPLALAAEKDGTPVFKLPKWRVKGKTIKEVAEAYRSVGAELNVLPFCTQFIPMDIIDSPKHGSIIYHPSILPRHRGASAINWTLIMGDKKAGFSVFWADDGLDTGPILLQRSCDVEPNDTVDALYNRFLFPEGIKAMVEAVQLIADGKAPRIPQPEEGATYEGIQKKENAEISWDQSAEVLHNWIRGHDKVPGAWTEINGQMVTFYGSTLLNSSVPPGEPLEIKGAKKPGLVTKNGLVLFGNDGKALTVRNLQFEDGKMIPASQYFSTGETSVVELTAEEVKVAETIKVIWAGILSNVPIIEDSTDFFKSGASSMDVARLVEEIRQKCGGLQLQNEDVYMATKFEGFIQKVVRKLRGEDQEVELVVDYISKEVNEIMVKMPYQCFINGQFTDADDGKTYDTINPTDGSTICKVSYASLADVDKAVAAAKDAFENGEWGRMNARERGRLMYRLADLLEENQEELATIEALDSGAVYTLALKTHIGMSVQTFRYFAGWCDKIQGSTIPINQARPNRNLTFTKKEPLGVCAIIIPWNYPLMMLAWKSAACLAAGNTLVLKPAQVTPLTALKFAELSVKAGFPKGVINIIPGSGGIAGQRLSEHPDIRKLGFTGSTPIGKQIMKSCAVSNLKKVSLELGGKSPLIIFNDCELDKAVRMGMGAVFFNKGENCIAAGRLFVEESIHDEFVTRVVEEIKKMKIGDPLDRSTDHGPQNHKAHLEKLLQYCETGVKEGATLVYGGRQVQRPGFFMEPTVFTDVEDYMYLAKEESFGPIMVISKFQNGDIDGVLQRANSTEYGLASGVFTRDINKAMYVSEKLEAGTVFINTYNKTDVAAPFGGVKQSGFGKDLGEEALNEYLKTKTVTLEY
In short: as §1

T1 sequence (Q14966 whole entry): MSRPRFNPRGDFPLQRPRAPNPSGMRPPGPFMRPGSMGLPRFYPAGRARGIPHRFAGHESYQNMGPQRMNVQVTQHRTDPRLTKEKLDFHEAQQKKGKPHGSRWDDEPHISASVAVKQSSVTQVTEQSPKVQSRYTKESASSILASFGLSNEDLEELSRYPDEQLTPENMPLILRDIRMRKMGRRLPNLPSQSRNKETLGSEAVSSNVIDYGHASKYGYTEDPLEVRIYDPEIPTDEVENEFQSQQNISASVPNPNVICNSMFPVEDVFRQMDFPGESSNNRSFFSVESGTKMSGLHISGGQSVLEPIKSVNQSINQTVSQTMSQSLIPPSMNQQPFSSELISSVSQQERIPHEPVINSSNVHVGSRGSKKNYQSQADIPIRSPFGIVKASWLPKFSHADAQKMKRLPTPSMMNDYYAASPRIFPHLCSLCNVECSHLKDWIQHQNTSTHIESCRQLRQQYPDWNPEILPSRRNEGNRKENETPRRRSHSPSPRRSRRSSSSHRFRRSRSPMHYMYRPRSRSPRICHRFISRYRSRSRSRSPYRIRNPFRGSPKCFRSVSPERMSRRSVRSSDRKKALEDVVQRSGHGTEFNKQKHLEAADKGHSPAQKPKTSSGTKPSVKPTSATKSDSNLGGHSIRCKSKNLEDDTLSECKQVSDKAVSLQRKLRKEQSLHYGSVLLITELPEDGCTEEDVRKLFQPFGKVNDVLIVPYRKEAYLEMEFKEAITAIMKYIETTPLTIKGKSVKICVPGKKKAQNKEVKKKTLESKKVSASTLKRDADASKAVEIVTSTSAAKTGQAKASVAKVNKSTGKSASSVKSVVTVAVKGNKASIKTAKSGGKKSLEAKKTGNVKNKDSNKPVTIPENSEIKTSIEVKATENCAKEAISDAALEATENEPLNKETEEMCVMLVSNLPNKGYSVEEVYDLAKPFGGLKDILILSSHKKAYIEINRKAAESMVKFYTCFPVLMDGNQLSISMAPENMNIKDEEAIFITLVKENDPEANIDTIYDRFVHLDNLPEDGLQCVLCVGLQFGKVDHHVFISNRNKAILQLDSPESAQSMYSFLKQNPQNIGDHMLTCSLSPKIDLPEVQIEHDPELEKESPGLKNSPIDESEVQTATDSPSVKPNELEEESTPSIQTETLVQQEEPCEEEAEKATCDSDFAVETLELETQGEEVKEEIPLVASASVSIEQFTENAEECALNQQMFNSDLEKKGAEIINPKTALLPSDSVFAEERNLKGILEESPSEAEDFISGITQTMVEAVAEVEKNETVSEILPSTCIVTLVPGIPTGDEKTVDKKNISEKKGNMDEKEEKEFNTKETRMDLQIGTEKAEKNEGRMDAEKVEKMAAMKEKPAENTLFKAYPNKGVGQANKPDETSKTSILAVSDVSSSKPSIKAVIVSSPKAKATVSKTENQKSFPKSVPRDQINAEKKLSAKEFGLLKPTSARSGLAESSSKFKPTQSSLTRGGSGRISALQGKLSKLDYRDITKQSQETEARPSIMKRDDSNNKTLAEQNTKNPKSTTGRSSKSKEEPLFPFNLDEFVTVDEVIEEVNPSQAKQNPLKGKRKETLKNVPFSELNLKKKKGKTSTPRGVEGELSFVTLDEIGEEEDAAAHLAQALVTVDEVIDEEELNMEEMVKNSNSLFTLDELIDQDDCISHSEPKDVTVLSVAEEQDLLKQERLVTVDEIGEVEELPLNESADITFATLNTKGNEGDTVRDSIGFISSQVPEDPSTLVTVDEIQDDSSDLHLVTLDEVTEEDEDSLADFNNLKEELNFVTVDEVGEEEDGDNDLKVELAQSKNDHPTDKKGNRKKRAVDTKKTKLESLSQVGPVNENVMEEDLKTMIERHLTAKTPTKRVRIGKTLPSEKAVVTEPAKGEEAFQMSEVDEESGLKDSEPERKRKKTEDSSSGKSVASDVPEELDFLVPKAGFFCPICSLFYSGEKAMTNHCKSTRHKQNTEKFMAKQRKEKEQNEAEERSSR
T3 sequence (Q96RP9 37-751): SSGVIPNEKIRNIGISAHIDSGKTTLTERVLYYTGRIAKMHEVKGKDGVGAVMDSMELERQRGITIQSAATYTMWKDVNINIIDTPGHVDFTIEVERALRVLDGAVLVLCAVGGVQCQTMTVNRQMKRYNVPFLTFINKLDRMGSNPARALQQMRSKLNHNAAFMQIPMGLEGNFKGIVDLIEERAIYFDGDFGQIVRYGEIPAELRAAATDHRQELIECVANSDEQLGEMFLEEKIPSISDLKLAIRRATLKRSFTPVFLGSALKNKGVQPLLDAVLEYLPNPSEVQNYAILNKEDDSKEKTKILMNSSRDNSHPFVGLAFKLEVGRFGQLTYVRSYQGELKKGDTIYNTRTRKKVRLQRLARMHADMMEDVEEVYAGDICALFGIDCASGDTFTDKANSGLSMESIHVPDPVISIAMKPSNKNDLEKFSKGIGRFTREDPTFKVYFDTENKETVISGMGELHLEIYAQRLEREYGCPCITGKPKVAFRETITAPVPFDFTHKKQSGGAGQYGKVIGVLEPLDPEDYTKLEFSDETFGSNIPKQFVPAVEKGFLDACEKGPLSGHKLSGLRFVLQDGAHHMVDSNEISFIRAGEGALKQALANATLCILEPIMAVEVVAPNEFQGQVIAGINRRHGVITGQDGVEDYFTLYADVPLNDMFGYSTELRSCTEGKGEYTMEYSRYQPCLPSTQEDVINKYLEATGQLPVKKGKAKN
T4 sequence (Q9Y4K3 whole entry): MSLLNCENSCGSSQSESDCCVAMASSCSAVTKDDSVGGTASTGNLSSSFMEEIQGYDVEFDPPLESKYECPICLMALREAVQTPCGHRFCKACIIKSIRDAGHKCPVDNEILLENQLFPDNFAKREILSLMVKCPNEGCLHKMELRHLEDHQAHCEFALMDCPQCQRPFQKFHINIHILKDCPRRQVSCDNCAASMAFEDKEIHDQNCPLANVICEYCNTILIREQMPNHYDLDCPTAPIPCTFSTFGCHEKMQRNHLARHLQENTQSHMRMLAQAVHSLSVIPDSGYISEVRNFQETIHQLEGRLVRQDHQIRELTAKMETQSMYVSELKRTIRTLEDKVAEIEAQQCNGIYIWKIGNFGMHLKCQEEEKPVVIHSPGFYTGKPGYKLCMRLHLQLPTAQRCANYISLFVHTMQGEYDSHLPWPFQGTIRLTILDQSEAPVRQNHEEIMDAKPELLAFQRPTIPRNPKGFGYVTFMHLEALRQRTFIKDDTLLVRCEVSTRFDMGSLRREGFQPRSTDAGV
T2 sequence (Q14139 whole entry): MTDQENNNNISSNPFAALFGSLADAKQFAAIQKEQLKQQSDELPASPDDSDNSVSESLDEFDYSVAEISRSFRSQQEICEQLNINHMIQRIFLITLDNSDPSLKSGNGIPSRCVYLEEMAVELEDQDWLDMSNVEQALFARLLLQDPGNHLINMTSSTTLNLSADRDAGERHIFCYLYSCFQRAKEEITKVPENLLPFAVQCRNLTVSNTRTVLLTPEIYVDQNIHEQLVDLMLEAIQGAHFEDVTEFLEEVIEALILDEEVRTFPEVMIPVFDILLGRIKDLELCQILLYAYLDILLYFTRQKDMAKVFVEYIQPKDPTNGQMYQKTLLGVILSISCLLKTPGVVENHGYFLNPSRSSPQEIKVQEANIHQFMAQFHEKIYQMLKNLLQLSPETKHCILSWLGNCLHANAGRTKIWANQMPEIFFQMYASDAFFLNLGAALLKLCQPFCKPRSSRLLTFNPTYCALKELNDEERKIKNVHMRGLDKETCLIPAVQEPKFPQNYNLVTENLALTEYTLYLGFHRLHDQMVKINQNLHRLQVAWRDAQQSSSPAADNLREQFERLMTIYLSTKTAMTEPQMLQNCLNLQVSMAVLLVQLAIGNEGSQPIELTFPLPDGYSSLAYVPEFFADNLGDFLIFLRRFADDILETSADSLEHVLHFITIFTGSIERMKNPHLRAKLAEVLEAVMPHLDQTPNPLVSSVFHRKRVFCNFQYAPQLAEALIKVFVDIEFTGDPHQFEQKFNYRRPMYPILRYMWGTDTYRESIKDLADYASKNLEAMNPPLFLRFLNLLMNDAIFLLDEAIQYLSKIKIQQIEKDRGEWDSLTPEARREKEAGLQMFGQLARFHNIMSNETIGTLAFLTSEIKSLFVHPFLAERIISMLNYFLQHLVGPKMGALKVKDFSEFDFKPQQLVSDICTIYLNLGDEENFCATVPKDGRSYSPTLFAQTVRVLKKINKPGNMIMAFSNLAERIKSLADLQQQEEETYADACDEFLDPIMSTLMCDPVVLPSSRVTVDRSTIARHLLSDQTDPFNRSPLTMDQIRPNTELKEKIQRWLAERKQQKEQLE

Compound: COc1ccc2c(c1)CCCN2C(=O)CCl [KB02]
Liganded ([1]; ZNF638 Res# 1023, uniprot Q14966): YES
Liganded ([1]; ZNF638 Res# 1026, uniprot Q14966): YES
Liganded [2]: YES
Liganded [3]: YES

inhibition at 500 µM [4]: 31%
Compound: C=CC(=O)N(c1ccccc1)c1ccc(Br)cc1 [KB05]

Compound: O=C(CCl)Nc1cc(C(F)(F)F)cc(C(F)(F)F)c1 [KBO3]
Liganded ([5]; ALDH1L2 Res# 707, uniprot Q3SY69): YES
100 Max ([5]; uniprot Q3SY69): 52.7
100 ave ([5]; uniprot Q3SY69): 52.7
500 ave ([5]; uniprot Q3SY69): 77.55
500 Max ([5]; uniprot Q3SY69, in % (unit assumed)): 77.55
